# Article PMC6325233, “A Novel Actin Binding Drug with In Vivo Efficacy” (Antimicrobial Agents and Chemotherapy, 2018)
# Entries after “also recorded” stand apart in the source; their conditions may differ.
# Assays:
# [1] = tested on: rabbit skeletal muscle G-actin; assay: Affinity pulldown with biotinylated alkyne-OF and streptavidin beads; format: binding; conditions: 24 μg G-actin, 8 μg alkyne-OF, azide-biotin, streptavidin beads, silver stain
# Description: (§1) Purified rabbit skeletal muscle filamentous actin (catalog number AKF99) and G-actin (catalog number AKL95) were purchased from Cytoskeleton, Inc. Actin was reconstituted in Milli-Q water to achieve a stock concentration of 0.4 mg/ml in a buffer that consisted of 5 mM Tris-HCl (pH 8.0), 0.2 mM CaCl2, 0.2 mM ATP, 2 mM MgCl2, and 5% (wt/vol) sucrose as directed by the supplier. This solution was stored at −80°C in 50-μl aliquots until use. Immediately before use, each aliquot was thawed by placing it in a 37°C water bath for 5 min and then at room temperature. For all studies, 24 μg of F- or G-actin was used with 8 μg alkyne-OF. F-actin filaments were reacted with native occidiofungin for 15 min at room temperature at molar ratios of 1:10 (24 μg actin to 8 μg native occidiofungin) and 1:5 (24 μg actin to 4 μg native occidiofungin). As per the manufacturer’s instructions, Acti-stain 670 phalloidin (Cytoskeleton, Inc.) was used as a control in an in vitro actin filament binding study. Actin filaments treated with DMSO (solvent blank negative control) were stained and observed for comparison. The actin filaments were visualized on an Olympus FV1000 confocal microscope. Pulldown assays were performed using alkyne-OF with azide-biotin (Click-iT protein reaction buffer kit; Thermo Fisher Scientific), according to the manufacturer’s instructions. The proteins captured by biotinylated alkyne-OF on streptavidin beads were eluted by boiling in 50 µl of SDS sample loading buffer. The sample was electrophoresed through a 12% SDS gel, and protein bands were visualized by silver staining (Pierce Silver stain kit; Thermo Fisher Scientific) according to the manufacturer’s protocol. F- and G-actin treated with DMSO and native occidiofungin were used as the controls.
# [2] = target: T1, rabbit skeletal muscle F-actin (Oryctolagus cuniculus, UniProt P68135); assay: as above; format: binding; conditions: 24 μg F-actin, 8 μg alkyne-OF, azide-biotin, streptavidin beads, silver stain
# T1 construct: Purified rabbit skeletal muscle filamentous actin (catalog number AKF99); purchased Cytoskeleton, Inc. AKF99; host or cells: rabbit skeletal muscle (tissue-purified)
# Description: as §1
# S. pombe = assay: FM-464 uptake (endocytosis) assay; format: cell-based; conditions: 0.5 μg/ml (0.5× MIC) and 1 μg/ml (1× MIC), 30 min, 30°C
# Description: The hyphal induction assay was performed as previously reported with minor modifications ([58]). Candida albicans strain ATCC 66027 was grown in yeast extract-peptone-dextrose (YPD) medium at 30°C for 48 h to reach saturation with an OD600 of 17 to 19. Cells were diluted into fresh Spider medium (1% nutrient broth, 1% mannitol, 0.2% K2HPO4) to obtain an OD600 of 0.05 (∼0.5 × 10^6 to 1 × 10^6 cells/ml) and incubated at 37°C with shaking to induce hyphal formation. Immediately prior to the 37°C incubation, occidiofungin (1 µg/ml; 0.5× MIC) or an equal volume of DMSO was added to the cultures. Aliquots were removed at 0-, 1-, 2-, 4-, and 6-h time points and fixed in 3.7% formaldehyde for later analysis of cell morphology by light microscopy. More than 200 cells were examined for each time point, and cells were scored as having either a yeast or filamentous form, with cells showing any outgrowth considered filamentous. DNA segregation assays were performed using a mid-log culture of S. cerevisiae (BY4743, diploid) and C. albicans (ATCC 66027). The cultures were diluted in fresh YPD medium to obtain OD600s of 0.095 (∼1 × 10^6 to 1.5 × 10^6 cells/ml) and 0.05 (0.5 × 10^6 to 0.8 × 10^6 cells/ml), respectively. […] Images were viewed using a Nikon 50i fluorescence microscope with a 100× oil immersion objective and DAPI filter. Cells were scored on the basis of bud morphology and DNA location. […]
# [3] = tested on: clinically relevant fungi; assay: Spectrum of antifungal activity (summary); format: cell-based
# Description: Occidiofungin was purified from a liquid culture of Burkholderia contaminans MS14 as previously described ([21]). MIC susceptibility testing was performed according to the CLSI M27-A3 and M38-A2 standards for the susceptibility testing of yeasts and filamentous fungi, respectively. S. cerevisiae deletion mutants were obtained from the commercially available BY4741 deletion library (Thermo Scientific).
substance,measurement,setting,value
occidiofungin,copurification/binding with G-actin,[1],directly bind to F- or G-actin
same,copurification/binding with G-actin,[1]; listed as native OF,actin was not detected in the control lanes
same,copurification/binding with F-actin,[2],directly bind to F- or G-actin
same,copurification/binding with F-actin,[2]; listed as native OF,actin was not detected in the control lanes
same,effect on endocytosis (FM-464-stained vesicles),S. pombe,concentration-dependent reductions in stained endocytic vesicles; also recorded: decreased in a dose-dependent fashion
same,activity against filamentous fungi,"[3]; Aspergillus, Mucor, Fusarium, Rhizopus, and azole- and terbinafine-resistant Trichophyton",active
same,activity against fluconazole- and caspofungin-resistant Candida,"[3]; Candida albicans, Candida glabrata, Candida parapsilosis resistant to fluconazole and caspofungin",sensitive to occidiofungin
same,activity against caspofungin-resistant strains,[3]; Candida parapsilosis and C. neoformans resistant to caspofungin,susceptible to treatment with occidiofungin
same,activity against C. auris,[3]; strains of C. auris,sensitive to occidiofungin at submicromolar concentrations
same,activity against filamentous and nonfilamentous fungi,[3]; summary of Table S1,low micromolar inhibitory activity; also recorded: activity against filamentous and nonfilamentous fungi at submicromolar concentrations
same,spectrum of activities vs other clinically available antifungals,[3]; summary of Table S1,broader spectrum of activities
